Laboratory results from patent publication US20210379210A1, “RADIOLIGANDS FOR IMAGING THE LPA1 RECEPTOR” (BRISTOL-MYERS SQUIBB COMPANY, priority 2018, published 2021).

How the values were obtained:
[1] = Free fraction (free of protein binding) of the PET radioligand; format: in vitro ADME; conditions: read-out: free fractions, free of protein binding
[2] = In-vivo PET imaging in bleomycin treated rat model, LPA1 target engagement (% displacement); conditions: Sprague Dawley, rat, lung, intravenous, bleomycin treated rats, baseline
Experimental: (§1) [^18F]-(1S,3S)-3-(((6-(5-((((4-(fluoro)butyl)(methyl)carbamoyl)oxy)methyl)-1-methyl-1H-1,2,3-triazol-4-yl)-2-methylpyridin-3-yl)oxy)cyclohexane-1-carboxylic acid was tested to confirm its properties, specificity and targeting of the LPA1 receptor in aged-matched wild type (Sprague Dawley rat, Charles River Laboratory, PA) and bleomycin-induced pulmonary fibrosis rat models. The bleomycin-induced pulmonary fibrosis rat model was generated in anesthetized rats that were administered bleomycin (2 μL/g) via oropharyngeal instillation. For oropharyngeal instillation, anesthetized rats (isoflurane, 4% in 100% 02) were placed on a slanted board/tilting workstation and bleomycin was dripped onto the vocal cords, facilitating aspiration. Rats were then returned to their cages until they fully recovered from anesthesia and were monitored daily for the duration of the experiment. In this experiment, the [^18F]-labeled LPA1 antagonist, produced as described in the above Examples, was tested for its ability to discriminate between normal lung in wild type rats and increased lung LPA1 expression in the bleomycin rat disease model. The bleomycin treated rats were used at 14 and 15 days post bleomycin treatment. […] For PET image acquisition, rats were placed in an anesthetic induction chamber and 3% isoflurane inhalant anesthesia was delivered in 100% O2 at a rate of 1-1.5 L/min. Once sedated, the rats were removed from the induction chamber and placed into a plexiglass 2-chamber holder (custom-made by BMS-Applied Biotechnology group) within the gantry of the PET system (microPET® F220™, Siemens Preclinical Solutions, Knoxville, Tenn.) where they remained for the duration of the study. Anesthesia was maintained with 1-1.5% isoflurane inhalant anesthesia delivered in 100% 02 at a rate of 2 L/min via the nose-cone. Animals were kept warm using an external standalone temperature regulating unit (M2M Imaging Corp) to prevent hypothermia during imaging. Rat respiration was continuously monitored during imaging procedures and isoflurane was adjusted dependent on depth of anesthesia. A 10-minute transmission image was first acquired using a ^57Co point source for the purpose of attenuation correction of the final PET images and confirmation of lung localization for region of interest (ROI) analysis. The scanning region was located beginning at the neck area and extending toward the hind limbs of each animal in order to place the lungs within the 7.6 cm microPET system axial field of view (FOV). Upon completion of the transmission scan, each rat received administration of between 19.5-29.7 MBq (542-803 μCi) of [^18F]-(1S,3S)-3-(((6-(5-((((4-(fluoro)butyl)(methyl) carbamoyl)oxy)methyl)-1-methyl-1H-1,2,3-triazol-4-yl)-2-methylpyridin-3-yl)oxy)cyclohexane-1-carboxylic acid tracer via tail vein catheter followed by a 2 hour dynamic PET emission scan. […] Images were reconstructed using a maximum a posteriori (MAP) algorithm with attenuation correction using the collected transmission images and corrected for radioisotope decay. The PET images were then co-registered with corresponding transmission images using anatomical landmarks (air in lung) and boundaries of the animal holder. Images were analyzed by Inveon Research Workstation (Siemens Medical Solutions USA Inc., PA). Analysis for each rat was done with regions of interest (ROIs) drawn onto each whole lung and a section of the liver using the co-registered transmission images. There were 3-4 ROIs drawn for each lung volume (left whole lung and right whole lung) as well as 3 ROIs drawn on a section of the liver. ROIs were drawn inside the whole lung to avoid spillover signal from the heart and liver. ROIs were drawn on a section of the liver using the same method. Based on quantitative values from these ROIs (nCi/cc), % injected dose/cc (% ID/g) was calculated. Radiotracer uptake was compared across lung tissues in these groups using the time periods between 60-90 minutes post radioligand injection. […]

LPA1 = LPA1 (Rattus norvegicus, UniProt P61794); assay: as above; conditions: bleomycin treated rats
Chain of LPA1 (P61794 whole entry): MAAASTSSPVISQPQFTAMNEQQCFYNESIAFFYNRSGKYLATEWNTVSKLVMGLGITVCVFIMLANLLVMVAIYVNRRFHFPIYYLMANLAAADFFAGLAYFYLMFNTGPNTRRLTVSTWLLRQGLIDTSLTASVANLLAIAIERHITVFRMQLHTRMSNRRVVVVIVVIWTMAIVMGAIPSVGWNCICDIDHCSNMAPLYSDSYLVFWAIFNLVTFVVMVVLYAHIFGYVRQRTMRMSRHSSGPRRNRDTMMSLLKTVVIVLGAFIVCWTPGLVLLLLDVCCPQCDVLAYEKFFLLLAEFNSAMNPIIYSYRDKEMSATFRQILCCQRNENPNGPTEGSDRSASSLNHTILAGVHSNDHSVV
Experimental: as §1

fraction unbound [1]: 0.05 to 0.11 | tissue uptake ([2]; 1 mg/kg, Group 1 (1 mg/kg group, n=6)): 0.12 ± 0.01 %ID/g | tissue uptake ([2]; 3 mg/kg, Group 2 (3 mg/kg group, n=6)): 0.1 ± 0.01 %ID/g | tissue uptake ([2]; 10 mg/kg, Group 3 (10 mg/kg group, n=6)): 0.12 ± 0.02 %ID/g | tissue uptake ([2]; 30 mg/kg, Group 4 (30 mg/kg group, n=7)): 0.09 ± 0.01 %ID/g | tissue uptake ([2]; 100 mg/kg, Group 5 (100 mg/kg group, n=6)): 0.1 ± 0.01 %ID/g | Baseline % ID/g in Lung, Mean (LPA1; Group 1 (1 mg/kg group, n=6), listed as [^18F]-(1S,3S)-3-(6-(5-((((4-(fluoro)butyl)(methyl)carbamoyl)oxy)methyl)-1-meth, 1 mg/kg))): 0.12 % ID/g | Baseline % ID/g in Lung, Mean (LPA1; Group 2 (3 mg/kg group, n=6), listed as [^18F]-(1S,3S)-3-(6-(5-((((4-(fluoro)butyl)(methyl)carbamoyl)oxy)methyl)-1-meth, 3 mg/kg))): 0.10 % ID/g | Baseline % ID/g in Lung, Mean (LPA1; Group 3 (10 mg/kg group, n=6), listed as [^18F]-(1S,3S)-3-(6-(5-((((4-(fluoro)butyl)(methyl)carbamoyl)oxy)methyl)-1-meth, 10 mg/kg))): 0.12 % ID/g | Baseline % ID/g in Lung, Mean (LPA1; Group 4 (30 mg/kg group, n=7), listed as [^18F]-(1S,3S)-3-(6-(5-((((4-(fluoro)butyl)(methyl)carbamoyl)oxy)methyl)-1-meth, 30 mg/kg))): 0.09 % ID/g | Baseline % ID/g in Lung, Mean (LPA1; Group 5 (100 mg/kg group, n=6), listed as [^18F]-(1S,3S)-3-(6-(5-((((4-(fluoro)butyl)(methyl)carbamoyl)oxy)methyl)-1-meth, 100 mg/kg))): 0.10 % ID/g
SMILES: Cc1nc(-c2nnn(C)c2COC(=O)N(C)CCCC[18F])ccc1O[C@H]1CCC[C@H](C(=O)O)C1 [Example 16]
